Reference: ChEMBL document CHEMBL4049416, “Synthesis and anti-cancer activities of new sulfonamides 4-substituted-triazolyl nucleosides” (Bioorg Med Chem Lett, 2017)
Calls of active or inactive are those of the source. No cut-off for these calls is given here.

Columns and labels:
RCC4 [1] = test: Anticancer activity against human RCC4 cells after 48 hrs by XTT assay; assay type: functional, cell-based; settings: RCC4, 48 h
MDA-MB-231 [2] = test: Anticancer activity against human MDA-MB-231 cells after 48 hrs by XTT assay; assay type: functional, cell-based; settings: MDA-MB-231, 48 h
RCC4 [3] = test: Induction of autophagy in human RCC4 cells assessed as increase in LC3 conversion at 1 mM after 48 hrs by Western blot method; assay type: functional, cell-based
[4] = Potency index, ratio of AICAR IC50 to compound IC50 for human RCC4 cells; assay type: functional
MDA-MB-231 [5] = test: Potency index, ratio of AICAR IC50 to compound IC50 for human MDA-MB-231 cells; assay type: functional
RCC4 [6] = test: Anticancer activity against human RCC4 cells at 50 uM after 48 hrs by XTT assay; assay type: functional, cell-based
MDA-MB-231 [7] = test: Anticancer activity against human MDA-MB-231 cells at 50 uM after 48 hrs by XTT assay; assay type: functional, cell-based
RCC4 [8] = test: Induction of apoptosis in human RCC4 cells assessed as PARP cleavage at 20 uM after 48 hrs by Western blot method; assay type: functional, cell-based
RCC4 [9] = test: Induction of autophagy in human RCC4 cells assessed as increase in LC3 lipidation at 20 uM after 48 hrs by Western blot method; assay type: functional, cell-based
RCC4 [10] = test: Induction of autophagy in human RCC4 cells assessed as increase in LC3 cleavage at 20 uM after 48 hrs by Western blot method; assay type: functional, cell-based
[11] = Solubility of the compound; assay type: physicochemical
[12] = Micelle aggregation by the compound

Row | Structure (SMILES) | IC50 (MDA-MB-231 [2]) | IC50 (RCC4 [1]) | other results
1 | CC(=O)OC[C@H]1O[C@@H](n2cc(CN(c3ccc(C#N)cc3)S(C)(=O)=O)nn2)[C@@H](OC(C)=O)[C@@H](OC(C)=O)[C@@H]1OC(C)=O | 230 µM | 240 µM | –
2 | COC(=O)C(C)(C)N(Cc1cn([C@@H]2O[C@H](COC(C)=O)[C@@H](OC(C)=O)[C@H](OC(C)=O)[C@H]2OC(C)=O)nn1)S(C)(=O)=O | 225 µM | 240 µM | –
3 | CCS(=O)(=O)N(Cc1cn([C@@H]2O[C@H](COC(C)=O)[C@@H](OC(C)=O)[C@H](OC(C)=O)[C@H]2OC(C)=O)nn1)c1ccc(Cl)cc1 | > 250 µM | > 250 µM | –
4 | CS(=O)(=O)N(Cc1cn([C@H]2O[C@H](CO)[C@@H](O[C@@H]3O[C@H](CO)[C@H](O)[C@H](O)[C@H]3O)[C@H](O)[C@H]2O)nn1)c1ccc(C#N)cc1 | 250 µM | 120 µM | –
5 | CC(=O)OC[C@H]1O[C@@H](n2cc(CN(c3ccc(Cl)cc3)S(=O)(=O)c3ccccc3)nn2)[C@H](OC(C)=O)[C@@H]1OC(C)=O | 250 µM | 250 µM | –
6 | CS(=O)(=O)N(Cc1cn([C@@H]2O[C@H](CO)[C@@H](O[C@H]3O[C@H](CO)[C@@H](O)[C@H](O)[C@H]3O)[C@H](O)[C@H]2O)nn1)c1ccc(C#N)cc1 | 250 µM | 250 µM | –
7 | COC(=O)C(C)(C)N(Cc1cn([C@@H]2O[C@H](COC(C)=O)[C@@H](OC(C)=O)[C@H]2OC(C)=O)nn1)S(C)(=O)=O | 240 µM | 50 µM | –
8 | NC(=O)c1ncn([C@@H]2O[C@H](CO)[C@@H](O)[C@H]2O)c1N [ACADESINE] | 1000 µM | 250 µM | Activity (RCC4 [3]): Active
9 | COC(=O)CN(Cc1cn([C@@H]2O[C@H](COC(C)=O)[C@@H](OC(C)=O)[C@H](OC(C)=O)[C@H]2OC(C)=O)nn1)S(C)(=O)=O | > 250 µM | > 250 µM | –
10 | CC(=O)OC[C@H]1O[C@@H](n2cc(CN(c3ccccc3)S(C)(=O)=O)nn2)[C@H](OC(C)=O)[C@@H]1OC(C)=O | 250 µM | 180 µM | –
11 | CCS(=O)(=O)N(Cc1cn([C@@H]2O[C@H](COC(C)=O)[C@@H](OC(C)=O)[C@H]2OC(C)=O)nn1)c1ccc(Cl)cc1 | 250 µM | 250 µM | –
12 | CCCCCCN(Cc1cn([C@@H]2O[C@H](COC(C)=O)[C@@H](OC(C)=O)[C@H]2OC(C)=O)nn1)S(C)(=O)=O | 225 µM | 140 µM | solubility [11]: Soluble; Activity [12]: inactive
13 | CCCCN(Cc1cn([C@@H]2O[C@H](COC(C)=O)[C@@H](OC(C)=O)[C@H]2OC(C)=O)nn1)S(C)(=O)=O | 225 µM | 250 µM | solubility [11]: Soluble; Activity [12]: inactive
14 | CS(=O)(=O)N(Cc1cn([C@@H]2O[C@H](CO)[C@@H](O)[C@H]2O)nn1)c1ccc(C#N)cc1 | > 250 µM | 250 µM | –
15 | COC(=O)CN(Cc1cn([C@@H]2O[C@H](COC(C)=O)[C@@H](OC(C)=O)[C@H]2OC(C)=O)nn1)S(C)(=O)=O | 250 µM | 125 µM | –
16 | CC(=O)OC[C@H]1O[C@@H](n2cc(CN(c3ccc(C#N)cc3)S(C)(=O)=O)nn2)[C@H](OC(C)=O)[C@@H](OC(C)=O)[C@@H]1O[C@H]1O[C@H](COC(C)=O)[C@@H](OC(C)=O)[C@H](OC(C)=O)[C@H]1OC(C)=O | 230 µM | 230 µM | –

Now from value to compound, other results behind:

Row | IC50 (MDA-MB-231 [2]) | Structure (SMILES) | IC50 (RCC4 [1]) | other results
17 | 100 µM | CC(=O)OC[C@H]1O[C@@H](n2cc(CN(c3ccc(C#N)cc3)S(C)(=O)=O)nn2)[C@H](OC(C)=O)[C@@H](OC(C)=O)[C@H]1OC(C)=O | 170 µM | –
18 | 155 µM | CCS(=O)(=O)N(Cc1cn([C@@H]2O[C@H](COC(C)=O)[C@@H](OC(C)=O)[C@H](OC(C)=O)[C@H]2OC(C)=O)nn1)c1ccccc1 | 175 µM | –
19 | 185 µM | CS(=O)(=O)N(Cc1cn([C@@H]2O[C@H](CO)[C@@H](O)[C@H](O)[C@H]2O)nn1)c1ccc(C#N)cc1 | 200 µM | –
20 | 100 µM | CC(=O)OC[C@H]1O[C@@H](n2cc(CN(c3ccccc3)S(=O)(=O)c3ccccc3)nn2)[C@H](OC(C)=O)[C@@H]1OC(C)=O | 150 µM | –
21 | 215 µM | CCS(=O)(=O)N(Cc1cn([C@H]2O[C@H](CO)[C@@H](O[C@@H]3O[C@H](CO)[C@H](O)[C@H](O)[C@H]3O)[C@H](O)[C@H]2O)nn1)c1ccc(Cl)cc1 | 200 µM | –
22 | 70 µM | CC(=O)OC[C@H]1O[C@@H](O[C@H]2[C@H](OC(C)=O)[C@@H](OC(C)=O)[C@@H](n3cc(CN(c4ccc(C#N)cc4)S(C)(=O)=O)nn3)O[C@@H]2COC(C)=O)[C@H](OC(C)=O)[C@@H](OC(C)=O)[C@H]1OC(C)=O | 50 µM | –
23 | 150 µM | CCS(=O)(=O)N(Cc1cn([C@H]2O[C@H](COC(C)=O)[C@@H](O[C@@H]3O[C@H](COC(C)=O)[C@H](OC(C)=O)[C@H](OC(C)=O)[C@H]3OC(C)=O)[C@H](OC(C)=O)[C@H]2OC(C)=O)nn1)c1ccc(Cl)cc1 | 160 µM | –
24 | 220 µM | COc1cccc(N(Cc2cn([C@@H]3O[C@H](COC(C)=O)[C@@H](OC(C)=O)[C@H](OC(C)=O)[C@H]3OC(C)=O)nn2)S(C)(=O)=O)c1 | 200 µM | –
25 | 15 µM | CCCCCCCCCCCCCCCCN(Cc1cn([C@@H]2O[C@H](COC(C)=O)[C@@H](OC(C)=O)[C@H]2OC(C)=O)nn1)S(C)(=O)=O | 13 µM | Ratio IC50 [4]: 19; Ratio IC50 (MDA-MB-231 [5]): 66; Activity (RCC4 [6]): Active; Activity (MDA-MB-231 [7]): Active; Activity (RCC4 [8]): Active; Activity (RCC4 [9]): Active; Activity (RCC4 [10]): Active; solubility [11]: Soluble; Activity [12]: inactive
26 | 31 µM | CCCCCCCCCCCCCCN(Cc1cn([C@@H]2O[C@H](COC(C)=O)[C@@H](OC(C)=O)[C@H]2OC(C)=O)nn1)S(C)(=O)=O | 29 µM | solubility [11]: Soluble; Activity [12]: inactive
27 | 205 µM | CC(=O)OC[C@H]1O[C@@H](n2cc(CN(c3ccc(C)cc3)S(=O)(=O)c3ccccc3)nn2)[C@H](OC(C)=O)[C@@H]1OC(C)=O | 230 µM | –
28 | 6 µM | CCN(CC)CCNC(=O)c1c(C)[nH]c(/C=C2\C(=O)Nc3ccc(F)cc32)c1C [SUNITINIB] | 4 µM | –
29 | 180 µM | CC(=O)OC[C@H]1O[C@@H](n2cc(CN(c3ccc(C)cc3)S(=O)(=O)c3ccccc3)nn2)[C@H](OC(C)=O)[C@@H](OC(C)=O)[C@@H]1OC(C)=O | 130 µM | –
30 | 215 µM | CC(=O)OC[C@H]1O[C@@H](n2cc(CN(c3ccc(C#N)cc3)S(C)(=O)=O)nn2)[C@H](OC(C)=O)[C@@H](OC(C)=O)[C@@H]1OC(C)=O | 120 µM | –
31 | 100 µM | CC(=O)OC[C@H]1O[C@@H](n2cc(CN(c3ccc(C#N)cc3)S(C)(=O)=O)nn2)[C@H](OC(C)=O)[C@@H]1OC(C)=O | 235 µM | –
32 | 135 µM | CC(=O)OC[C@H]1O[C@@H](n2cc(CN(c3ccc(Cl)cc3)S(=O)(=O)c3ccccc3)nn2)[C@H](OC(C)=O)[C@@H](OC(C)=O)[C@@H]1OC(C)=O | 115 µM | –
33 | 160 µM | COc1cccc(N(Cc2cn([C@@H]3O[C@H](COC(C)=O)[C@@H](OC(C)=O)[C@H]3OC(C)=O)nn2)S(C)(=O)=O)c1 | 190 µM | –
